Experimental findings from US20260317309A1, “N-HETEROCYLIC GPCR RECEPTOR AGONISTS, PHARMACEUTICAL COMPOSITIONS COMPRISING THE SAME, AND METHODS FOR THEIR USE” (Carmot Therapeutics, Inc., priority 2022, published 2026) are described below.

In this assay the target is T1, human GLP-1 receptor (Homo sapiens, UniProt P43220).
T1 construct: expressed in transfected cells
In words: GLP-1R cAMP assay (cAMP accumulation in CHO cells stably overexpressing the human GLP-1 receptor, HitHunter kit). In kind it is cell-based. The conditions noted are these: CHO cells stably overexpressing human GLP-1R, 30 min, 20-point dose response in triplicate. As to the method:
CAMP accumulation was measured in Chinese hamster ovary (CHO) cells (10,000 cells/well) stably overexpressing the human GLP-1 receptor using the HitHunter CAMP Assay for Small Molecules Kit (Eurofins). Briefly, cells were grown in Ham's F12 Nutrient Mix with 10% FBS, and lifted with Cell Dissociation Buffer, Enzyme free, PBS based (ThermoFisher). Cells were pelleted, and resuspended in Hank's buffered saline solution with 10 mM HEPES, and 625 μM 3-isobutyl-1-methylxanthine. The anti-cAMP antibody reagent was then added to cells at a 1:2 ratio and 5 μL of mixture was seeded in 384-well small volume white assay plates, at 10,000 cells/well. Cells were then treated with 50 nL compound using an ECHO 550 acoustic dispenser (Labcyte) in a 20-point dose response format in triplicate for 30 min. Cells were then lysed, and detection reagents added according to the manufacturer's protocol. After overnight incubation, luminescence was measured using a Perkin Elmer Envision plate reader. Dose response curves were analyzed using GraphPad Prism 9.0.
In the Table, EC50 values are designated as follows: • A: 0 nM<EC50<0.1 nM; • B: 0.1 nM≤EC50<1.0 nM; • C: 1.0 nM≤EC50<10.0 nM; • D: 10.0 nM≤EC50<100 nM; • E: 100 nM≤EC50<500 nM; and • F: ≥500 nM

T1 sequence (P43220 24-463): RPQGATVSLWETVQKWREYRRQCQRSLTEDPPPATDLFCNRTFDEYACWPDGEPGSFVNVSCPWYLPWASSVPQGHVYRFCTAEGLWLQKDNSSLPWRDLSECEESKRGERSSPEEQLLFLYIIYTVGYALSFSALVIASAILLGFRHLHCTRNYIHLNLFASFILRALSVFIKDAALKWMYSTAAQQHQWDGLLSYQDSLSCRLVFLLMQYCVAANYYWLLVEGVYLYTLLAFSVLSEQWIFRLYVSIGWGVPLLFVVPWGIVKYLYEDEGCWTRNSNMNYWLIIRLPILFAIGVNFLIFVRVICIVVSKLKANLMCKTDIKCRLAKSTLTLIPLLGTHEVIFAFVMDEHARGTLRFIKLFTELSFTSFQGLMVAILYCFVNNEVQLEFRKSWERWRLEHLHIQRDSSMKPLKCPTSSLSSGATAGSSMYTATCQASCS

As a reminder, the EC50 is the midpoint of the concentration-response curve. With `C[C@H]1C[C@@H](Oc2ccnc(COc3ccc(C#N)cn3)n2)CCN1Cc1nc2c(F)cc(C(=O)O)cc2n1C[C@@H]1CCO1` [Compound 604, 2-{[(2S,4S)-4-[(2-{[(5-cyanopyridin-2-yl)oxy]methyl}pyrimidin-4-yl)oxy]-2-methylpiperidin-1-yl]methyl}-4-fluoro-1-{[(2S)-oxetan-2-yl]methyl}-1H-1,3-benzodiazole-6-carboxylic acid], the half-maximal effective concentration (EC50) is 0.1 to 1 nM. `Cc1cc2nc(CN3CC[C@H](Oc4ccnc(COc5ccc(F)cc5F)n4)C[C@@H]3C)n(C[C@@H]3CCO3)c2cc1C(=O)O` [Compound 585, 2-{[(2S,4S)-4-({2-[(2,4-Difluorophenoxy)methyl]pyrimidin-4-yl}oxy)-2-methylpiperidin-1-yl]methyl}-5-methyl-1-{[(2S)-oxetan-2-yl]methyl}-1H-1,3-benzodiazole-6-carboxylic acid] showed an EC50 of 0.1 to 1 nM.

Consider `C[C@H]1C[C@@H](Oc2ccnc(COc3ccc(F)cc3F)n2)CCN1Cc1nc2ccc(C(=O)O)cc2n1C[C@H]1CCO1` [Compound 562, 2-{[(2S,4S)-4-({2-[(2,4-difluorophenoxy)methyl]pyrimi-din-4-yl}oxy)-2-methylpiperi-din-1-yl]methyl}-1-{[(2R)-oxe-tan-2-yl]methyl}-1H-1,3-benzo-diazole-6-carboxylic acid], for which the concentration giving a half-maximal response (EC50) was in the range of 0.1 to 1 nM. On to `C[C@H]1C[C@@H](Oc2ccnc(COc3ccc(F)cc3F)n2)CCN1Cc1nc2ccc(CO)cc2n1C[C@@H]1CCO1` [Compound 639, (2-(((2S,4S)-4-((2-((2,4-difluorophenoxy)methyl)pyrimidin-4-yl)oxy)-2-methylpiperidin-1-yl)methyl)-1-(((S)-oxetan-2-yl)methyl)-1H-benzo[d]imidazol-6-yl)methanol], for which the EC50 was in the range of 10 to 100 nM.

As for `C[C@H]1C[C@@H](Oc2ccnc(COc3ncc(C#N)cc3F)n2)CCN1Cc1nc2c(F)cc(C(=O)O)cc2n1CCOCC(F)(F)F` [Compound 636, 2-(((2S,4S)-4-((2-(((5-cyano-3-fluoropyridin-2-yl)oxy)methyl)pyrimidin-4-yl)oxy)-2-methylpiperidin-1-yl)methyl)-4-fluoro-1-(2-(2,2,2-trifluoroethoxy)ethyl)-1H-benzo[d]imidazole-6-carboxylic acid], the EC50 fell in the range of 0.1 to 1 nM. As to `C[C@H]1C[C@@H](Oc2ccnc(NCc3ccc(F)cc3F)n2)CCN1Cc1nc2ccc(C(=O)O)cc2n1C[C@@H]1CCO1` [Compound 614, 2-(((2S,4S)-4-((2-((2,4-Difluorobenzyl)amino)pyrimidin-4-yl)oxy)-2-methylpiperidin-1-yl)methyl)-1-(((S)-oxetan-2-yl)methyl)-1H-benzo[d]imidazole-6-carboxylic acid], the EC50 was in the range of 0.1 to 1 nM.

In the case of `CC(c1nc2ccc(C(=O)O)cc2n1C[C@@H]1CCO1)N1CCC(Oc2ccnc(COc3ccc(F)cc3F)n2)CC1` (stereo partly drawn) [Compound 565, 2-(1-(4-((2-((2,4-Difluorophenoxy)methyl)pyrimidin-4-yl)oxy)piperidin-1-yl)ethyl)-1-(((S)-oxetan-2-yl)methyl)-1H-benzo[d]imidazole-6-carboxylic acid], the EC50 was in the range of 1 to 10 nM. Then `C[C@H](Cn1c(CN2CC[C@H](Oc3ccnc(COc4ncc(F)cc4F)n3)C[C@@H]2C)nc2ccc(C(=O)O)cc21)OC(F)F` [Compound 617, 1-((R)-2-(Difluoromethoxy)propyl)-2-(((2S,4S)-4-((2-(((3,5-difluoropyridin-2-yl)oxy)methyl)pyrimidin-4-yl)oxy)-2-methylpiperidin-1-yl)methyl)-1H-benzo[d]imidazole-6-carboxylic acid], with under 0.1 nM. With `CC(c1nc2ccc(C(=O)O)cc2n1C[C@@H](O)CCO)N1CC[C@H](Oc2ccnc(COc3ccc(F)cc3F)n2)C[C@@H]1C` (mixture of isomers) [Compound 569, 2-{1-[(2S,4S)-4-({2-[(2,4-difluorophenoxy)methyl]pyrimidin-4-yl}oxy)-2-methylpiperidin-1-yl]ethyl}-1-[(2S)-2,4-dihydroxybutyl]-1H-1,3-benzodiazole-6-carboxylic acid] the figure was at least 500 nM; with `C[C@H]1C[C@@H](Oc2ccnc(COc3ccc(F)cc3C#N)n2)CCN1Cc1nc2ccc(C(=O)O)cc2n1CCOCC(F)(F)F` [Compound 601, 2-{[(2S,4S)-4-({2-[(2-cyano-4-fluorophenoxy)methyl]pyrimidin-4-yl}oxy)-2-methylpiperidin-1-yl]methyl}-1-[2-(2,2,2-trifluoroethoxy)ethyl]-1H-1,3-benzodiazole-6-carboxylic acid], under 0.1 nM. With `N#CC[C@H]1C[C@@H](Oc2ccnc(COc3ccc(F)cc3Cl)n2)CCN1Cc1nc2ccc(C(=O)O)cc2n1C[C@@H]1CCO1` [Compound 557, 2-{[(2S,4S)-4-({2-[(2-Chloro-4-fluorophenoxy)methyl]pyrimidin-4-yl}oxy)-2-(cyanomethyl)piperidin-1-yl]methyl}-1-{[(2S)-oxetan-2-yl]methyl}-1H-1,3-benzodiazole-6-carboxylic acid], the EC50 lay within 1 to 10 nM. `CC[C@H]1C[C@@H](Oc2ccnc(COc3ncc(Cl)cc3F)n2)CCN1Cc1nc2ccc(C(=O)O)cc2n1C[C@@H]1CCO1` [Compound 608, 2-{[(2S,4S)-4-[(2-{[(5-Chloro-3-fluoropyridin-2-yl)oxy]methyl}pyrimidin-4-yl)oxy]-2-ethylpiperidin-1-yl]methyl}-1-[(oxetan-2-yl)methyl]-1H-1,3-benzodiazole-6-carboxylic acid] registered an EC50 of 0.1 to 1 nM.

Turning to `C[C@H]1C[C@@H](Oc2ccnc(COc3ccc(F)cc3F)n2)CCN1Cc1nc2ccc(C(=O)O)cc2n1CC1CCC1` [Compound 590, 1-(Cyclobutylmethyl)-2-{[(2S,4S)-4-({2-[(2,4-difluorophenoxy)methyl]pyrimidin-4-yl}oxy)-2-methylpiperidin-1-yl]methyl}-1H-1,3-benzodiazole-6-carboxylic acid], the EC50 was 0.1 to 1 nM. `C[C@H]1C[C@@H](Oc2ccnc(CNc3ncc(F)cc3Cl)n2)CCN1Cc1nc2ccc(C(=O)O)cc2n1C[C@@H]1CCO1` [Compound 624, 2-(((2S,4S)-4-((2-(((3-Chloro-5-fluoropyridin-2-yl)amino)methyl)pyrimidin-4-yl)oxy)-2-methylpiperidin-1-yl)methyl)-1-(((S)-oxetan-2-yl)methyl)-1H-benzo[d]imidazole-6-carboxylic acid]: the EC50 lay within 1 to 10 nM. With `C[C@H]1C[C@@H](Oc2ccnc(COc3ccc(F)cc3C#N)n2)CCN1Cc1nc2cnc(C(=O)O)cc2n1C[C@@H]1CCO1` [Compound 574, 2-{[(2S,4S)-4-({2-[(2-cyano-4-fluorophenoxy)methyl]pyrimidin-4-yl}oxy)-2-methylpiperidin-1-yl]methyl}-1-{[(2S)-oxetan-2-yl]methyl}-1H-imidazo[4,5-c]pyridine-6-carboxylic acid] the figure was 1 to 10 nM; with `C[C@H]1C[C@@H](Oc2ccnc(COc3ccc(F)cc3C#N)n2)CCN1Cc1nc2ncc(C(=O)O)cc2n1C[C@@H]1CCO1` [Compound 556, 2-(((2S,4S)-4-((2-((2-Cyano-4-fluorophenoxy)methyl)pyrimidin-4-yl)oxy)-2-methylpiperidin-1-yl)methyl)-1-(((S)-oxetan-2-yl)methyl)-1H-imidazo[4,5-b]pyridine-6-carboxylic acid], 0.1 to 1 nM; with `C[C@H]1C[C@@H](Oc2ccnc(COc3ncc(Cl)cc3F)n2)CCN1Cc1nc2ccc(C(=O)O)cc2n1CCOCC(F)(F)F` [Compound 595, 2-{[(2S,4S)-4-[(2-{[(5-chloro-3-fluoropyridin-2-yl)oxy]methyl}pyrimidin-4-yl)oxy]-2-methylpiperidin-1-yl]methyl}-1-[2-(2,2,2-trifluoroethoxy)ethyl]-1H-1,3-benzodiazole-6-carboxylic acid], 0.1 to 1 nM. Molecule `C[C@H](Cn1c(CN2CC[C@H](Oc3ccnc(COc4ccc(F)cc4F)n3)C[C@@H]2C)nc2ccc(C(=O)O)cc21)OC1CC1` [Compound 618, 1-((R)-2-cyclopropoxypropyl)-2-(((2S,4S)-4-((2-((2,4-difluorophenoxy)methyl)pyrimidin-4-yl)oxy)-2-methylpiperidin-1-yl)methyl)-1H-benzo[d]imidazole-6-carboxylic acid] had a half-maximal effective concentration (EC50) of 0.1 to 1 nM. Then `C[C@H]1C[C@@H](Oc2ccnc(COc3ccc(Cl)cn3)n2)CCN1Cc1nc2c(F)cc(C(=O)O)cc2n1C[C@@H]1CCO1` [Compound 603, 2-{[(2S,4S)-4-[(2-{[(5-Chloropyridin-2-yl)oxy]methyl}pyrimidin-4-yl)oxy]-2-methylpiperidin-1-yl]methyl}-4-fluoro-1-{[(2S)-oxetan-2-yl]methyl}-1H-1,3-benzodiazole-6-carboxylic acid], with under 0.1 nM.

Turning to `N#Cc1ccc(OCc2nccc(OC3CCN(Cc4nc5cnc(C(=O)O)cc5n4C[C@@H]4CCO4)CC3)n2)c(F)c1` [Compound 580, 2-{[4-({2-[(4-Cyano-2-fluorophenoxy)methyl]pyrimidin-4-yl}oxy)piperidin-1-yl]methyl}-1-{[(2S)-oxetan-2-yl]methyl}-1H-imidazo[4,5-c]pyridine-6-carboxylic acid], the EC50 fell in the range of 1 to 10 nM.

`C[C@H]1C[C@@H](Oc2ccnc(COc3ccc(F)cc3F)n2)CCN1Cc1nc2c(F)cc(C(=O)O)cc2n1C[C@@H]1CCO1` [Compound 576, 2-{[(2S,4S)-4-({2-[(2,4-di-fluorophenoxy)methyl]pyrimidin-4-yl}oxy)-2-methylpiperidin-1-yl]methyl}-4-fluoro-1-{[(2S)-oxetan-2-yl]methyl}-1H-1,3-benzodiazole-6-carboxylic acid] yielded an EC50 of under 0.1 nM.
